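Step 1: Grow cells in 96-well plates. Step 2: Expose to compound for 48 hours at 5 concentrations. Step 3: Interpolate endpoints linearly; if unreached, use highest concentration. GI50 is the concentration that inhibits growth by half. The concentration for full growth arrest is given as TGI.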
Key:
Experiment in all cases: DTP human tumour cell line panel, 48 h
786-0 renal = test system: 786-0 renal
A498 renal = test system: A498 renal
A549 NSCLC = test system: A549 NSCLC
ACHN renal = test system: ACHN renal
BT-549 breast = test system: BT-549 breast
CAKI-1 renal = test system: CAKI-1 renal
CCRF-CEM leukemia = test system: CCRF-CEM leukemia
COLO 205 colon = test system: COLO 205 colon
DU-145 prostate = test system: DU-145 prostate
EKVX NSCLC = test system: EKVX NSCLC
HCC-2998 colon = test system: HCC-2998 colon
HCT-116 colon = test system: HCT-116 colon
HCT-15 colon = test system: HCT-15 colon
HL-60(TB) leukemia = test system: HL-60(TB) leukemia
HOP-62 NSCLC = test system: HOP-62 NSCLC
HOP-92 NSCLC = test system: HOP-92 NSCLC
HS 578T breast = test system: HS 578T breast
HT29 colon = test system: HT29 colon
IGROV1 ovarian = test system: IGROV1 ovarian
K-562 leukemia = test system: K-562 leukemia
KM12 colon = test system: KM12 colon
LOX IMVI melanoma = test system: LOX IMVI melanoma
M14 melanoma = test system: M14 melanoma
MALME-3M melanoma = test system: MALME-3M melanoma
MCF7 breast = test system: MCF7 breast
MDA-MB-231 breast = test system: MDA-MB-231 breast
MDA-MB-435 = test system: MDA-MB-435
MOLT-4 leukemia = test system: MOLT-4 leukemia
NCI-H226 lung = test system: NCI-H226 lung
NCI-H23 lung = test system: NCI-H23 lung
NCI-H460 lung = test system: NCI-H460 lung
NCI-H522 lung = test system: NCI-H522 lung
NCI/ADR-RES ovarian = test system: NCI/ADR-RES ovarian
OVCAR-3 ovarian = test system: OVCAR-3 ovarian
OVCAR-4 ovarian = test system: OVCAR-4 ovarian
OVCAR-5 ovarian = test system: OVCAR-5 ovarian
OVCAR-8 ovarian = test system: OVCAR-8 ovarian
PC-3 prostate = test system: PC-3 prostate
RPMI-8226 leukemia = test system: RPMI-8226 leukemia
RXF 393 renal = test system: RXF 393 renal
SF-268 CNS = test system: SF-268 CNS
SF-295 CNS = test system: SF-295 CNS
SF-539 CNS = test system: SF-539 CNS
SK-MEL-2 melanoma = test system: SK-MEL-2 melanoma
SK-MEL-28 melanoma = test system: SK-MEL-28 melanoma
SK-MEL-5 melanoma = test system: SK-MEL-5 melanoma
SK-OV-3 ovarian = test system: SK-OV-3 ovarian
SN12C renal = test system: SN12C renal
SNB-19 CNS = test system: SNB-19 CNS
SNB-75 CNS = test system: SNB-75 CNS
SR leukemia = test system: SR leukemia
SW-620 colon = test system: SW-620 colon
T-47D breast = test system: T-47D breast
TK-10 renal = test system: TK-10 renal
U251 CNS = test system: U251 CNS
UACC-257 melanoma = test system: UACC-257 melanoma
UACC-62 melanoma = test system: UACC-62 melanoma
UO-31 renal = test system: UO-31 renal

CS(=O)(=O)Nc1cc(-c2ccc3ncc(C#N)c(NCc4ccccc4)c3c2)cnc1Cl
GI50 (786-0 renal): 350 nM
TGI (786-0 renal): > 45400 nM
GI50 (A498 renal): 101 nM
TGI (A498 renal): 498 nM
GI50 (A549 NSCLC): 500 nM
TGI (A549 NSCLC): 7740 nM
GI50 (ACHN renal): 434 nM
TGI (ACHN renal): > 46300 nM
GI50 (BT-549 breast): 155 nM
TGI (BT-549 breast): 2040 nM
GI50 (CAKI-1 renal): 186 nM
TGI (CAKI-1 renal): 2370 nM
GI50 (CCRF-CEM leukemia): 117 nM
TGI (CCRF-CEM leukemia): 15200 nM
GI50 (COLO 205 colon): 353 nM
TGI (COLO 205 colon): 2870 nM
GI50 (DU-145 prostate): 322 nM
TGI (DU-145 prostate): 19200 nM
GI50 (EKVX NSCLC): 340 nM
TGI (EKVX NSCLC): 3860 nM
GI50 (HCC-2998 colon): 325 nM
TGI (HCC-2998 colon): 6420 nM
GI50 (HCT-116 colon): 334 nM
TGI (HCT-116 colon): 4360 nM
GI50 (HCT-15 colon): 268 nM
TGI (HCT-15 colon): 11400 nM
GI50 (HL-60(TB) leukemia): 294 nM
TGI (HL-60(TB) leukemia): 7520 nM
GI50 (HOP-62 NSCLC): 270 nM
TGI (HOP-62 NSCLC): 9120 nM
GI50 (HOP-92 NSCLC): 33.7 nM
TGI (HOP-92 NSCLC): 399 nM
GI50 (HS 578T breast): 65 nM
TGI (HS 578T breast): 521 nM
GI50 (HT29 colon): 463 nM
TGI (HT29 colon): 25000 nM
GI50 (IGROV1 ovarian): 89.6 nM
TGI (IGROV1 ovarian): 667 nM
GI50 (K-562 leukemia): 311 nM
TGI (K-562 leukemia): > 100000 nM
GI50 (KM12 colon): 431 nM
TGI (KM12 colon): 4980 nM
GI50 (LOX IMVI melanoma): 214 nM
TGI (LOX IMVI melanoma): 1110 nM
GI50 (M14 melanoma): 178 nM
TGI (M14 melanoma): 10800 nM
GI50 (MALME-3M melanoma): 79 nM
TGI (MALME-3M melanoma): 626 nM
GI50 (MCF7 breast): 63.7 nM
TGI (MCF7 breast): 3750 nM
GI50 (MDA-MB-231 breast): 331 nM
TGI (MDA-MB-231 breast): 6370 nM
GI50 (MDA-MB-435): 299 nM
TGI (MDA-MB-435): 8270 nM
GI50 (MOLT-4 leukemia): 177 nM
TGI (MOLT-4 leukemia): 3940 nM
GI50 (NCI-H226 lung): 347 nM
TGI (NCI-H226 lung): 18000 nM
GI50 (NCI-H23 lung): 291 nM
TGI (NCI-H23 lung): 15600 nM
GI50 (NCI-H460 lung): 371 nM
TGI (NCI-H460 lung): > 100000 nM
GI50 (NCI-H522 lung): 281 nM
TGI (NCI-H522 lung): 13900 nM
GI50 (NCI/ADR-RES ovarian): 1700 nM
TGI (NCI/ADR-RES ovarian): 28900 nM
GI50 (OVCAR-3 ovarian): 254 nM
TGI (OVCAR-3 ovarian): 2790 nM
GI50 (OVCAR-4 ovarian): 325 nM
TGI (OVCAR-4 ovarian): > 42700 nM
GI50 (OVCAR-5 ovarian): 440 nM
TGI (OVCAR-5 ovarian): 21100 nM
GI50 (OVCAR-8 ovarian): 364 nM
TGI (OVCAR-8 ovarian): > 39400 nM
GI50 (PC-3 prostate): 158 nM
TGI (PC-3 prostate): 2750 nM
GI50 (RPMI-8226 leukemia): 212 nM
TGI (RPMI-8226 leukemia): 1070 nM
GI50 (RXF 393 renal): 38.4 nM
TGI (RXF 393 renal): 435 nM
GI50 (SF-268 CNS): 197 nM
TGI (SF-268 CNS): 5220 nM
GI50 (SF-295 CNS): 192 nM
TGI (SF-295 CNS): 1740 nM
GI50 (SF-539 CNS): 205 nM
TGI (SF-539 CNS): 1700 nM
GI50 (SK-MEL-2 melanoma): 195 nM
TGI (SK-MEL-2 melanoma): 975 nM
GI50 (SK-MEL-28 melanoma): 175 nM
TGI (SK-MEL-28 melanoma): 10200 nM
GI50 (SK-MEL-5 melanoma): 146 nM
TGI (SK-MEL-5 melanoma): 344 nM
GI50 (SK-OV-3 ovarian): 259 nM
TGI (SK-OV-3 ovarian): 1610 nM
GI50 (SN12C renal): 233 nM
TGI (SN12C renal): > 49500 nM
GI50 (SNB-19 CNS): 268 nM
TGI (SNB-19 CNS): 11600 nM
GI50 (SNB-75 CNS): 38.2 nM
TGI (SNB-75 CNS): 334 nM
GI50 (SR leukemia): 164 nM
TGI (SR leukemia): 7910 nM
GI50 (SW-620 colon): 351 nM
TGI (SW-620 colon): > 36100 nM
GI50 (T-47D breast): 52.1 nM
TGI (T-47D breast): 2670 nM
GI50 (TK-10 renal): 190 nM
TGI (TK-10 renal): 1970 nM
GI50 (U251 CNS): 218 nM
TGI (U251 CNS): 12700 nM
GI50 (UACC-257 melanoma): 327 nM
TGI (UACC-257 melanoma): 6320 nM
GI50 (UACC-62 melanoma): 76.4 nM
TGI (UACC-62 melanoma): 815 nM
GI50 (UO-31 renal): 111 nM
TGI (UO-31 renal): 3170 nM

Reference: PubChem BioAssay (NCI)
